Among the data in PubChem BioAssay (NCI) are GI50 and TGI values, retold here.

Among the test systems are 786-0 renal; CCRF-CEM leukemia; MDA-MB-435; NCI-H226 lung; RPMI-8226 leukemia; SF-268 CNS; SF-295 CNS; SK-MEL-2 melanoma; SN12C renal; SNB-19 CNS.
Common to all, as to assay: inhibition of tumour cell growth, NCI panel, 48 h

SMILES strings stand for the structures.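 Interpolation was linear, between the two tested concentrations surrounding the appropriate level; five concentrations were tested over 48 hours in 96-well plates. Here, GI50 denotes the concentration required for 50% inhibition of growth. TGI: concentration producing complete growth inhibition.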 Bounds are passed on as bounds.

On to `CC([C@H]1CC=C2C3CCC4=C[C@@H](N(C)C)CC[C@]4(C)C3CC[C@@]21C)N(C)C` (stereo not given in full), for which the GI50 in the experiment on 786-0 renal is 2.94 µM; in the experiment on CCRF-CEM leukemia, 2.11 µM; in the experiment on MDA-MB-435 it was 2 µM; in the experiment with NCI-H226 lung it was 4.52 µM; in the experiment with RPMI-8226 leukemia, 1.91 µM; in the experiment on SF-268 CNS, 1.98 µM. For the same compound, the GI50 in the experiment on SF-295 CNS was 1.79 µM; in the experiment on SK-MEL-2 melanoma, 8.23 µM; with SN12C renal it was 2.54 µM; in the experiment on SNB-19 CNS it was 7.57 µM. Besides, the TGI was 7.99 µM with 786-0 renal; 7.79 µM with CCRF-CEM leukemia; 4.94 µM in the experiment with MDA-MB-435; 21.5 µM with NCI-H226 lung; 13 µM with RPMI-8226 leukemia; 4.71 µM in the experiment with SF-268 CNS. Further, the TGI in the experiment with SF-295 CNS stood at 4.35 µM; in the experiment on SK-MEL-2 melanoma, 21 µM; in the experiment with SN12C renal, 12.1 µM; in the experiment on SNB-19 CNS, 20.4 µM.

Consider `CC1(C)OC(=O)C(C#N)=C1C[n+]1ccccc1`, for which the TGI in the experiment with 786-0 renal, in the experiment with CCRF-CEM leukemia, in the experiment on MDA-MB-435, with NCI-H226 lung, with RPMI-8226 leukemia and in the experiment on SF-268 CNS was above 10 µM each time. Also, the TGI in the experiment on SF-295 CNS, with SK-MEL-2 melanoma, in the experiment on SN12C renal and with SNB-19 CNS was above 10 µM throughout.

Take `ClCc1ccccc1Cn1cnc2c(Cl)ncnc21`: the GI50 was 17.7 µM in the experiment on 786-0 renal; 1.28 µM with CCRF-CEM leukemia; 3.01 µM in the experiment on MDA-MB-435; 4.59 µM in the experiment with NCI-H226 lung; 14.1 µM with RPMI-8226 leukemia; 3.24 µM with SF-268 CNS. Also, the GI50 with SF-295 CNS is 10.5 µM; in the experiment with SK-MEL-2 melanoma, 2.76 µM; in the experiment with SN12C renal, 3.37 µM; with SNB-19 CNS, 5.38 µM. The TGI stood at 38.4 µM in the experiment on 786-0 renal; 3.24 µM in the experiment on CCRF-CEM leukemia; 9.49 µM with MDA-MB-435; 12.5 µM in the experiment with NCI-H226 lung; 40.6 µM in the experiment on RPMI-8226 leukemia; 10.9 µM in the experiment with SF-268 CNS. Further, the TGI in the experiment with SF-295 CNS is 23.3 µM; in the experiment on SK-MEL-2 melanoma, 18.1 µM; with SN12C renal, 8.72 µM; in the experiment with SNB-19 CNS it was above 100 µM.

As for `COc1cc(OC)c(OC)cc1/C=C/c1cnnc2ccccc12`, the TGI with 786-0 renal was above 10 µM; with CCRF-CEM leukemia, above 10 µM; in the experiment with MDA-MB-435, 6.52 µM; in the experiment with NCI-H226 lung it was above 10 µM; in the experiment on RPMI-8226 leukemia, above 10 µM; in the experiment with SF-268 CNS, above 10 µM. In addition, the TGI in the experiment with SF-295 CNS, in the experiment on SK-MEL-2 melanoma, with SN12C renal and in the experiment on SNB-19 CNS was above 10 µM in each case.

As to `CC(C)C(=O)c1c(C(F)(F)F)n([O-])c2cc(F)c(F)cc2[n+]1=O`, the GI50 was 0.444 µM in the experiment on 786-0 renal; 0.0218 µM in the experiment on CCRF-CEM leukemia; 0.724 µM in the experiment with MDA-MB-435; 1.26 µM in the experiment on NCI-H226 lung; 0.0666 µM with RPMI-8226 leukemia; 0.4 µM in the experiment on SF-268 CNS. For the same compound, the GI50 with SF-295 CNS is 1.19 µM; with SK-MEL-2 melanoma it was 0.234 µM; in the experiment with SN12C renal, 0.288 µM; with SNB-19 CNS, 1.34 µM. The TGI is 0.97 µM with 786-0 renal; above 100 µM with CCRF-CEM leukemia; 2.15 µM with MDA-MB-435; 2.54 µM with NCI-H226 lung; 12.3 µM in the experiment on RPMI-8226 leukemia; 1.05 µM in the experiment on SF-268 CNS. Besides, the TGI with SF-295 CNS came out at 2.56 µM; in the experiment with SK-MEL-2 melanoma, 27.8 µM; in the experiment on SN12C renal, 0.767 µM; with SNB-19 CNS it was 3.08 µM.

`CCOC(=O)C(=CNC(=S)N=Nc1c(O)[nH]c2ccccc12)C(=O)OCC`: the TGI with 786-0 renal, in the experiment with CCRF-CEM leukemia, with MDA-MB-435, with NCI-H226 lung, in the experiment on RPMI-8226 leukemia and in the experiment on SF-268 CNS was above 100 µM in each case. For the same compound, the TGI with SF-295 CNS, in the experiment with SK-MEL-2 melanoma, with SN12C renal and in the experiment on SNB-19 CNS was above 100 µM throughout.

For `Cc1ccc(NC(=O)/C(Cc2cc(=O)oc3cc(O)ccc23)=N\NC(C)(C)C)cc1C`, the TGI with 786-0 renal, with CCRF-CEM leukemia, with MDA-MB-435, in the experiment on NCI-H226 lung, with RPMI-8226 leukemia and with SF-268 CNS was above 100 µM in each case. In addition, the TGI in the experiment with SF-295 CNS, in the experiment on SK-MEL-2 melanoma, in the experiment on SN12C renal and in the experiment on SNB-19 CNS was above 100 µM throughout.

Regarding `O=C(c1ccccc1)c1c(C(F)(F)F)n([O-])c2cc(C(F)(F)F)ccc2[n+]1=O`, the GI50 in the experiment on 786-0 renal is 0.655 µM; with CCRF-CEM leukemia, 0.6 µM; in the experiment on MDA-MB-435 it was 1.6 µM; with NCI-H226 lung, 1.83 µM; with RPMI-8226 leukemia, 1.49 µM; in the experiment with SF-268 CNS, 1.58 µM. Also, the GI50 with SF-295 CNS was 1.57 µM; with SK-MEL-2 melanoma, 2.09 µM; in the experiment on SN12C renal, 1.83 µM; with SNB-19 CNS, 1.89 µM. In addition, the TGI in the experiment on 786-0 renal worked out at 1.4 µM; in the experiment on CCRF-CEM leukemia, 2.44 µM; in the experiment with MDA-MB-435, 3.02 µM; with NCI-H226 lung it was 4.01 µM; in the experiment on RPMI-8226 leukemia, 3.75 µM; in the experiment with SF-268 CNS it was 3.14 µM. The TGI stood at 2.97 µM in the experiment with SF-295 CNS, 3.93 µM in the experiment with SK-MEL-2 melanoma, 4.4 µM in the experiment on SN12C renal and 3.46 µM with SNB-19 CNS.
